{"source": "patent US8377918B2", "about": "(ACC Therapeutics Inc, priority 2005, dated 2013)", "key": {"[1]": {"test_system": "tumors induced by A2780/CP70 cells", "experiment": "Tumor weight of A2780/CP70 tumors on CAM", "assay_type": "in vivo, chicken embryo", "details": "10 μM apigenin or 2.5 μM CDDP+10 μM apigenin, 10 days", "procedure": "FIG. 4. […] The A2780/CP70 cells were seeded into 100 mm dish and grown to 90-100% confluence. […] In 10 days, the tumors were harvested and weighed. The blood vessel numbers of the tumor were counted under×100. At least five areas were determined. The data are mean±SD from two experiments (n=8). A, representative tumor morphology; B, tumor weight; C, relative numbers of blood vessels."}, "normal human cells": {"test_system": "normal human cells", "experiment": "Apoptosis of normal human cells (GM847 fibroblasts)", "assay_type": "cell-based", "details": "at up to 40 μM apigenin", "procedure": "(§1) FIG. 1. […] (A) A2780/CP70 cells and human fibroblast GM847 cells were seeded in 96-well plate at 4×10^3 cells per well and incubated overnight. […] The cells were incubated for 24 h. Cell proliferation was determined by MTT reduction. […] Cells were trypsinized, harvested, washed once with PBS buffer, and stained using the Annexin-V-Folus Kit as per the manufacture's instructions. […] After incubation, all cells were collected and total DNA was isolated. Eight (8) μg of DNA was resolved on 1.8% agarose gel. […] (D) Treatment of GM847 cells was the same as that of 5D. […] Cleavage of caspase-3 and PARP was detected by western-blot."}, "PC-3 cells": {"test_system": "PC-3 cells", "experiment": "MTT cell proliferation assay, PC-3 prostate cancer cells", "assay_type": "cell-based, human", "details": "24 h", "procedure": "FIG. 8. […] Prostate cancer cells PC-3 and DU145 were seeded in 96-well plates at 1×10^4 cells/well. […] The cell proliferation was assayed by culturing the cells for 24 h, then adding 10 μl of MTT reagent with incubation for 2 h. The reaction was stopped by adding 100 μl of solubilization solution. The relative cell proliferation was obtained by the reading at 590 nm which was recorded in a spectrophotometer, and normalized to the value of control.\nFIG. 9. […] A, Cisplatin-resistant ovarian cancer cell line A2780/CP70, and B, prostate cancer cells PC-3 were seeded in 96-well plates at 1×10^4 cells/well and incubated overnight.\n(§2) FIG. 17. […] A, the prostate cancer cells PC-3 and DU145; B, colon cancer cells Colo-205 and HCT-116; C, lung cancer cells A549 and H460 cells were plated at 1×10^4 cells per well in a 96 well plate in 100 μl of media.\nFIG. 18. […] A and B, the prostate cancer cells PC-3 and DU145; C, colon cancer cells Colo-205 and HCT-116; D, lung cancer cells A549 and H460 cells were plated at 1×10^4 cells per well in a 96 well plate in 100 μl of media. […] The cell proliferation was analyzed by MTT assay.\nFIG. 19. […] A, prostate cancer cells PC-3; and B, DU145 cells were plated at 1×10^4 cells per well in a 96 well plate in 100 μl of media. […] Cell proliferation was examined by MTT assay.\nFIG. 23. […] Cell proliferation was examined by MTT assay."}, "[2]": {"test_system": "VEGF transcriptional activity in A549 cells", "experiment": "VEGF reporter luciferase assay in A549", "assay_type": "cell-based, human", "details": "A549, 5, 10, and 20 μM, 24 h", "procedure": "FIG. 13. […] A549 cells were seeded on a six-well plate. When they reached 60 to 70% confluence, the cells were transfected using Lipofectamine reagent. A, A549 cells were cotransfected with 1 μg of pGL-StuI VEGF reporter and 0.3 μg of β-gal plasmid as described. […] Cells were then lysed and the supernatants were used to assay Luc and β-gal activities. The relative luciferase activities in the cell extracts were assayed by the ratio of Luc/β-gal activity and normalized to the value in the solvent DMSO control. B, cells were cotransfected with 1 μg of pMAP11wt VEGF reporter and 0.3 μg of β-gal plasmid as described. Cells were treated with different doses of apigenin as described above. C, the cells were transfected with pMAP11mut VEGF reporter (with 3-bp substitution of pMAP11wt), and treated as above “B”."}, "[3]": {"test_system": "HIF-1 expression in A2780/CP70 cells", "experiment": "HIF-1 immunoblotting, A2780/CP70", "assay_type": "cell-based, human", "description": "(§3) FIG. 5. […] The cells treated with solvent alone were used as a control. HIF-1α and HIF-1β protein levels were detected by immunoblotting as described in Materials and Methods. GAPDH was used as an internal control to test the loading and transfer efficiency."}, "A2780/CP70 cells": {"test_system": "A2780/CP70 cells", "experiment": "MTT cell proliferation assay, A2780/CP70 ovarian cancer cells", "assay_type": "cell-based, human", "details": "A2780/CP70, apigenin alone, 24 h", "procedure": "as §1\nFIG. 3. […] A2780/CP70 cells were seeded in 96-well plates and incubated overnight. The old medium was discarded and fresh medium with cisplatin (CDDP) in the presence or absence of apigenin (Api) was added. In 24 h, the cell proliferation was determined by means of MTT reduction method.\nFIG. 9. […] A, Cisplatin-resistant ovarian cancer cell line A2780/CP70, and B, prostate cancer cells PC-3 were seeded in 96-well plates at 1×10^4 cells/well and incubated overnight. […] In 24 h, the cell proliferation was assayed by using a MTT assay kit. *indicates significant difference compared to cisplatin alone (p<0.01)."}, "A2780/CP70 tumors": {"test_system": "A2780/CP70 tumors", "experiment": "New blood vessel formation in tumors on CAM", "assay_type": "in vivo, chicken embryo", "details": "15 μM apigenin, 100 h", "procedure": "FIG. 7. […] A2780/CP70 ovarian cancer cells were mixed with Matrigel and implanted onto the chorioallantoic membrane (CAM) of a 9-day old embryo. In 100 h, the tumor was cut off and the newly-formed blood vessels on the back of the tumor were determined."}, "A549 cells": {"test_system": "A549 cells", "experiment": "MTT cell proliferation assay, A549 lung cancer cells", "assay_type": "cell-based, human", "details": "A549, apigenin alone, 24 h", "procedure": "as §2"}, "[4]": {"test_system": "HIF-1 expression in OVCAR-3 cells", "experiment": "HIF-1 immunoblotting, OVCAR-3", "assay_type": "cell-based, human", "description": "as §3"}, "endothelial cells": {"test_system": "endothelial cells", "experiment": "Tube formation in vitro", "assay_type": "cell-based"}, "HCT-116 cells": {"test_system": "HCT-116 cells", "experiment": "MTT cell proliferation assay, HCT-116 colon cancer cells", "assay_type": "cell-based, human", "details": "HCT-116, apigenin alone, 24 h", "procedure": "as §2"}}, "data": [{"smiles": "O=c1cc(-c2ccc(O)cc2)oc2cc(O)cc(O)c12", "note": "[apigenin, 4′,5,7,-trihydroxyflavone]", "values": [{"measurement": "inhibition of tumor growth", "setting": "[1]", "result": 40, "unit": "%"}, {"measurement": "induction of apoptosis of normal human cells", "setting": "normal human cells", "result": "did not induce apoptosis"}, {"measurement": "effect on sensitivity to etoposide treatment", "setting": "PC-3 cells; PC-3, 15 μM apigenin", "result": "increased the sensitivity"}, {"measurement": "effect on cell proliferation", "setting": "PC-3 cells; PC-3, apigenin alone", "result": "inhibited"}, {"measurement": "effect on VEGF transcriptional activation", "setting": "[2]", "result": "dramatically suppresses"}, {"measurement": "effect on HIF-1 expression", "setting": "[3]", "result": "inhibited HIF-1 expression"}, {"measurement": "effect on cell proliferation", "setting": "A2780/CP70 cells", "result": "inhibited cell proliferation"}, {"measurement": "effect on new blood vessel formation (angiogenesis) in tumors", "setting": "A2780/CP70 tumors", "result": "inhibited new blood vessel formation"}, {"measurement": "effect on cell proliferation", "setting": "A549 cells", "result": "inhibited the proliferation"}, {"measurement": "effect on HIF-1 expression", "setting": "[4]", "result": "inhibited HIF-1 expression"}, {"measurement": "effect on tube formation", "setting": "endothelial cells", "result": "inhibited tube formation"}, {"measurement": "effect on cell proliferation", "setting": "HCT-116 cells", "result": "inhibited the proliferation"}]}]}
